Measurements taken from publication PMC5958115, “A novel small molecule chaperone of rod opsin and its potential therapy for retinal degeneration” (Nature Communications, 2018).
Entries after “also recorded” stand apart in the source; their conditions may differ. Where two headings read alike, the source gives them in different places.

Experiments:
Assay type in all cases: cell-based
[1] = molecular target: mouse P23H-opsin mutant (Mus musculus, UniProt P15409, P23H); assay: β-Gal fragment complementation assay: rescue of P23H opsin transport from ER to plasma membrane, U2OS(PLC-EA/P23H-PK) cells
Excerpt: U2OS(PLC-EA/P23H-PK) cells. A U2OS stable cell line was generated by DiscoveRx, Inc. (Fremont, CA, USA) for the β-Gal fragment complementation assay used in the small-molecule HTS for rescue of P23H-opsin transport. U2OS cells that continually express P23H-PK and PLC-EA fusion proteins were generated. Briefly, this small subunit of β-Gal (PK fragment) was fused to the C-terminal of the mouse P23H-opsin mutant, while the large EA fragment, a subunit of β-Gal, was fused with PLC, a plasma membrane-anchored peptide. Both constructs were subcloned by DicoveRx, Inc. and transferred into U2OS cells by viral infections. Positive clones were selected under treatment with hygromycin and geneticin.
Briefly, U2OS(PLC-EA /P23H-PK) cells were suspended in assay medium at 3 × 10^5 cells mL^−1. The cell suspension was dispensed into 384-well plates (Greiner Bio-one, Monroe, NC, USA) at 20 µL per well, with a Multidrop dispenser (Thermo Scientific, Waltham, MA, USA). Plates with cells then were centrifuged at 200×g for 15 s before incubation at 37 °C with 5% CO2. Plates were removed 24 h later for treatment with tested compounds. A total of 248 plates containing 79,080 compounds from three small-molecule libraries were paired with an equal number of assay plates with cultured cells. Owing to a limited capacity, these plates were assayed in seven batches. An average of 56.3 nL of 10 mM compound in DMSO was dispensed into each well from column 3 to 22 of paired assay plates using a 50 nL 384-pintool system, such that the final concentration of each compound was 22.52 µM on average. […] Each assay plate was shaken for 5 s before further incubation at 37 °C with 5% CO2. After 24 h, assay plates were removed, and each well was incubated with 25 µL of 1× Gal-Screen assay buffer (1:24 substrate-buffer ratio). Assay plates were incubated in the dark for 60–90 min, and luminescence was read from each assay plate with an Envision microplate reader (PerkinElmer) during a 0.1 s per well integration time. The mean and s.d. of readouts in column 2 of each plate were calculated as Mean0% and SD0%, whereas the average and s.d. of readouts in column 23 were calculated as Mean100% and SD100%. Eq. 1: Activity scores (%) = (RLUcp − Mean0%)/(Mean100% − Mean0%) × 100%, where RLUcp is the relative luminescence unit derived for cells treated with a compound. Eq. 2: Z′-factor = 1–3 × (SD0% + SD100%)/(Mean100% − Mean0%)[32]; Eq. 3: signal-to-background (S/B) ratio = Mean100%/Mean0%. Activities of all tested compounds were registered with their compound ID by GeneData Screener (Genedata, Basel, Switzerland) and Pipeline Pilot software (Accelrys, San Diego, CA, USA). Hits, cherry-picked from a separate stock dose-dependent activity test, were selected with an activity score cutoff at 20%. Activity of each hit was tested again with the β-Gal fragment complementation assay in a 10-dose series with each dose tested in triplicate. The 10 doses tested were 80, 40, 20, 10, 5, 2.5, 1.25, 0.625, 0.313, and 0.156 µM. Dose-dependent curves of each hit compound were fitted with GeneData and Origin software.
Detailed synthetic steps are described in Supplementary Note and Supplementary Fig. 9. […] YC-002-YC-021 were purchased from commercial vendors including Enamine LLC (Monmouth Jct., NJ, USA), Matrix Scientific (Columbia, SC, USA) and Tokyo Chemical Industry Co., Ltd. (Portland, OR, USA). […] Activities of YC compounds were tested with the β-Gal fragment complementation assay, as described in a prior section. All YC compounds were tested at 10 doses, each in triplicate: 80, 40, 20, 10, 5, 2.5, 1.25, 0.625, 0.313, and 0.156 µM.

[2] = molecular target: T1, mouse P23H opsin (Mus musculus, UniProt P15409, P23H); assay: High-content imaging analysis of P23H opsin immunostaining in NIH3T3-(P23H opsin/GFP) cells; settings: ratio of P23H rod opsin fluorescence on plasma membrane to whole cell
T1 construct: expressed in transfected cells
Description: To characterize the effect of active compounds on the localization of P23H-mutant opsin in mammalian cells, an image-based assay was used with cells immunostained for WT or P23H-mutant opsin protein[18]. Briefly, NIH3T3-(P23H opsin/GFP) or NIH3T3-(WT-opsin/GFP) cells were seeded at 5000 cells per well in a 384-well cell-carrier plate (PerkinElmer) and incubated at 37 °C with 5% CO2 for 2 h. Cells were treated with compounds as described for the β-Gal fragment complementation assay and incubated in assay medium for 24 h. The assay medium then was aspirated, and cells were fixed with 4% paraformaldehyde at 20 µL per well for 20 min at RT. Cells were immunostained in one of two ways: cell membranes were either permeabilized with 0.1% Triton X-100 for 15 min or left intact and then were incubated with 10% goat serum (Life Technologies). To detect opsin on the cell plasma membrane only, intact cells were immunostained with 20 µL per well of 20 µg mL^−1 B6-30 anti-rhodopsin antibody that recognizes the N-terminal epitope on the extracellular side of rhodopsin. To detect total opsin, cells were permeabilized with Triton X-100 and immunostained with 50 µg mL^−1 1D4 anti-rhodopsin antibody specific for the C-terminal epitope on the intracellular side of rhodopsin. Opsin immunostaining was visualized by incubating cells with 5 µg mL^−1 Cy3-conjugated goat anti-mouse IgG antibody. Three washes with phosphate-buffered saline (PBS: 10 mM Na2HPO4, 1.8 mM KH2PO4, pH 7.4, 137 mM NaCl, and 2.7 mM KCl) were performed between each step of incubation with antibody. In the last wash with PBS, DAPI was added to each well at 300 nM. Fluorescence images were obtained with the Operetta High Content Imaging System (PerkinElmer) using a ×20 long objective. Five fields were taken of each well for cell images using three channels for fluorescence: GFP (100 ms), Cy3 (300 ms), and DAPI (50 ms). Images were analyzed with Acapella software from the Columbus data storage and analysis system (PerkinElmer)[18]. For cells immunostained with opsin on the non-permeabilized cell membrane only, an average of total fluorescence intensity of Cy3 per cell was used to quantify opsin in each well of the 384-well plate. For cells immunostained with opsin in permeabilized whole cells, an average ratio of Cy3 intensity on the cell plasma membrane (PM) to that of the entire cell (opsin ratio PM-to-total) was calculated for each well of a 384-well plate to quantify opsin transport to the plasma membrane. The plasma membrane was defined within ± 5% of the cell border.

[3] = molecular target: T2, P23H opsin (Mus musculus, UniProt P15409, P23H); assay: Immunoblot of P23H opsin glycosylation in NIH3T3 cell lysates; parameters: key to Improved glycosylation: n = no; y = yes; settings: P23H opsin
T2 construct: expressed in transfected cells
Description: NIH3T3-(P23H opsin/GFP) or NIH3T3-(WT-opsin/GFP) cells were seeded in a 48-well plate (Corning Costar) at 3.2 × 10^5 cells per well and incubated at 37 °C with 5% CO2 for 2 h. One hundred-µL of assay medium containing a compound at 5× its final concentration was added to each well. The plate was gently shaken for 5 s before further incubation at 37 °C with 5% CO2 for 24 h. The assay medium then was aspirated, and cells were lysed with 100 µL per well PBS containing 0.1% Triton X-100 and complete protease inhibitor cocktail (Roche, Basel, Switzerland) followed by sonication for 3 s. Protein concentrations were determined with the Bradford assay. For PNGaseF catalyzed deglycosylation, 3 µL of PNGaseF (1500 U, NEB) was added to the cell lysate and the mixture was incubated at room temperature for 1 h before immunoblotting. For NIH3T3-(P23H opsin/GFP) cells, 15 µg of total protein were loaded per well onto an SDS-polyacrylamide gel; whereas for NIH3T3-(WT-opsin/GFP) cells, 5 µg of total protein was loaded per well. Opsin protein was immunostained with 0.2 μg mL^−1 horseradish peroxidase-conjugated 1D4 anti-rhodopsin antibody. Band intensities were measured with ImageJ software (http://imagej.nih.gov/ij/; National the Institutes of Health, Bethesda, MD, USA) and normalized to a glyceraldehyde 3-phosphate dehydrogenase (GAPDH) loading control. Full scans of immunoblotted membranes are shown in Supplementary Fig. 8.

[4] = modifications linked to C3 of the furan-2(5H)-one ring; 10 doses 0.156-80 µM; read-out: Potency EC50

SMILES | Emax ([1]; U2OS; read-out: Efficacy (%)) [%] | EC50 [1, 4] [µM] | activity in rescuing P23H-opsin transport (in words) [1] | also measured
O=C1NCC(c2ccc(Cl)s2)=C1c1cccs1 [YC-060] | 7.1 |  |  | EC50 ([1]; modifications of the furan-2(5H)-one ring; read-out: Potency): 24.6 µM
COc1ccc(C2=C(c3ccc(Cl)s3)COC2=O)cc1 [YC-052] | 10 | 7.13 |  | 
O=C1OCC(c2ccco2)=C1c1cccs1 [YC-049] |  |  | some activity that remained | EC50 [1]: 91.9 µM; Emax ([1]; U2OS, read-out: Efficacy (%)): 112%
COCCNC(=O)c1sc2c(cnc3ccc(OC)cc32)c1-c1ccccc1 [Compound F3382-5924] |  |  |  | β-Gal fragment complementation assay Activity score (%) Max (fit) / Efficacy ([1]; 24 h; 5 µM 9-cis-retinal = 100%; from curve fitting): 155%; EC50 ([1]; 24 h preincubation; activity standardized to 5 µM 9-cis-retinal as 100%; Hill fit; read-out: β-Gal fragment complementation assay Activity score (%) EC50): 28.6 µM; Immunostaining HCS MEM-Total ratio Max (fit) [2]: 0.046; EC50 ([2]; read-out: Immunostaining HCS MEM-Total ratio EC50): 2.42 µM; Improved glycosylation [3]: y
Cc1c(F)cccc1C1=C(c2ccc(Cl)s2)COC1=O [YC-054] | 227 | 3.53 | improved potency, efficacy, or solubility | 
O=C1OCC(c2ccc(Cl)s2)=C1c1ccsc1 [YC-051] | 169 | 10.9 | activity was preserved or improved | 
COc1cccc(C2=C(c3ccc(Cl)s3)COC2=O)c1Cl [YC-056] | 104 | 9.39 |  | 
O=C1OCC(c2ccc(Cl)s2)=C1c1ccco1 [YC-028] |  |  | failed to retain activity | 
O=C1OCC(c2ccc(Cl)s2)=C1c1ccccc1F [YC-068] | 261 | 5.66 | relatively higher efficacies; also recorded: improved potency, efficacy, or solubility | 
O=C1OCC(c2ccc(Cl)s2)=C1c1ccc(F)cc1 [YC-053] | 32.9 | 24.1 | little efficacy | 
